The experiment has as its target T1, androgen receptor (AR) splicing variant AR-v7 (Homo sapiens, UniProt P10275).
T1 construct: The degradation activity of compounds on AR-v7 in 22RV1 cells; host or cells: 22RV1 cells
T1 sequence (P10275 1-644 isoform P10275-3): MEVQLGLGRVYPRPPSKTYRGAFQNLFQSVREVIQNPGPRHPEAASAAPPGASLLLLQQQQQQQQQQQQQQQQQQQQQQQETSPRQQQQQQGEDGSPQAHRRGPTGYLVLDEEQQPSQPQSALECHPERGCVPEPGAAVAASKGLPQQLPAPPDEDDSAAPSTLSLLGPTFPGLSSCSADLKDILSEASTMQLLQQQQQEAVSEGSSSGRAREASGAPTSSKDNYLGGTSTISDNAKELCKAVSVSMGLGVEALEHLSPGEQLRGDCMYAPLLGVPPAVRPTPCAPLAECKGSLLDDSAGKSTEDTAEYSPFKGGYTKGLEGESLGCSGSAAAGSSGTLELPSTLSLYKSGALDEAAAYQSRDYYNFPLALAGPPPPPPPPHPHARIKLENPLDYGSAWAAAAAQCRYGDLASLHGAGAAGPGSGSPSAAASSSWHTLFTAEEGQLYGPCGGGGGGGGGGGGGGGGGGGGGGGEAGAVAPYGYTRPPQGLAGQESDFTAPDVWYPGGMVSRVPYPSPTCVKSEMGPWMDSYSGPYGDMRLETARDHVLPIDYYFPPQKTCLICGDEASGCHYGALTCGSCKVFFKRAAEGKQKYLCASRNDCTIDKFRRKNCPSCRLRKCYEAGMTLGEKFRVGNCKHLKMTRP
As to the kind of experiment: Degradation activity on androgen receptor splicing variant AR-v7 in 22RV1 cells (ELISA). The experiment is classed as cell-based. The following applies: AR-v7 degradation in 22RV1 cells, 48 h. In general terms: In an ELISA, binding on a coated surface is turned into a signal by an enzyme label.

Some results are limits rather than exact numbers.

Regarding `CC(C)(c1ccc(OCc2ccnc(N3CCC4(CC3)COC4)n2)cc1)c1ccc(OC2CC(Nc3ccc4c(c3)C(=O)N(C3CCC(=O)NC3=O)C4=O)C2)cc1` (stereo not drawn) [Example 78, 5-((3-(4-(2-(4-((2-(2-oxa-7-azaspiro[3.5]nonan-7-yl)pyrimidin-4-yl)methoxy)phenyl)propan-2-yl)phenoxy)cyclobutyl)amino)-2-(2,6-dioxopiperidin-3-yl)isoindolin-1,3-dione], the 50% degradation concentration (DC50) (commonly the concentration at which degradation of the target reaches its halfway point) (class symbols) is 11 to 100 nM.
Same read-out and setting: the value for `CN1CCC2(CCN(c3nccc(COc4ccc(C(C)(C)c5ccc(OC6CC(Nc7ccc8c(c7)C(=O)N(C7CCC(=O)NC7=O)C8=O)C6)cc5)cc4)n3)C2)C1` (stereo not drawn) [Example 79, 2-(2,6-dioxopiperidin-3-yl)-5-((3-(4-(2-(4-((2-(7-methyl-2,7-diazaspiro[4.4]nonan-2-yl)pyrimidin-4-yl)methoxy)phenyl)propan-2-yl)phenoxy)cyclobutyl)amino)isoindolin-1,3-dione] was 11 to 100 nM; that for `CC(C)(c1ccc(OCc2ccnc(N3CC4CNCC4C3)n2)cc1)c1ccc(OC2CC(Nc3ccc4c(c3)C(=O)N(C3CCC(=O)NC3=O)C4=O)C2)cc1` (stereo not drawn) [Example 80] was 11 to 100 nM.
On the same count and under the same terms, the value for `CC(C)(c1ccc(OCc2ccnc(N3CCC4(CCNC4)C3)n2)cc1)c1ccc(O[C@H]2C[C@H](Nc3ccc4c(c3)C(=O)N(C3CCC(=O)NC3=O)C4=O)C2)cc1` (stereo partly drawn) [Example 81, 5-(((1r,3r)-3-(4-(2-(4-((2-(2,7-diazaspiro[4.4]nonan-2-yl)pyrimidin-4-yl)methoxy)phenyl)propan-2-yl)phenoxy)cyclobutyl)amino)-2-(2,6-dioxopiperidin-3-yl)isoindolin-1,3-dione] was 11 to 100 nM; that for `CC(C)(c1ccc(OCc2ccnc(N3CCC4(CNC4)C3)n2)cc1)c1ccc(O[C@H]2C[C@H](Nc3ccc4c(c3)C(=O)N(C3CCC(=O)NC3=O)C4=O)C2)cc1` (stereo partly drawn) [Example 83, 5-(((1r,3r)-3-(4-(2-(4-((2-(2,6-diazaspiro[3.4]octan-6-yl)pyrimidin-4-yl)methoxy)phenyl)propan-2-yl)phenoxy)cyclobutyl)amino)-2-(2,6-dioxopiperidin-3-yl)isoindolin-1,3-dione] was 11 to 100 nM; that for `CC(C)(c1ccc(OCc2ccnc(N3CCC4(CC3)CNC4)n2)cc1)c1ccc(O[C@H]2C[C@@H](Nc3ccc4c(c3)C(=O)N(C3CCC(=O)NC3=O)C4=O)C2)cc1` (stereo partly drawn) [Example 84, 5-(((1s,3s)-3-(4-(2-(4-((2-(2,7-diazaspiro[3.5]nonan-7-yl)pyrimidin-4-yl)methoxy)phenyl)propan-2-yl)phenoxy)cyclobutyl)amino)-2-(2,6-dioxopiperidin-3-yl)isoindolin-1,3-dione] was 11 to 100 nM.
Compound `CC(C)(c1ccc(OCc2ccnc(N3CC4(CCNCC4)C3)n2)cc1)c1ccc(O[C@H]2C[C@@H](Nc3ccc4c(c3)C(=O)N(C3CCC(=O)NC3=O)C4=O)C2)cc1` (stereo partly drawn) [Example 85, 5-(((1s,3s)-3-(4-(2-(4-((2-(2,7-diazaspiro[3.5]nonan-2-yl)pyrimidin-4-yl)methoxy)phenyl)propan-2-yl)phenoxy)cyclobutyl)amino)-2-(2,6-dioxopiperidin-3-yl)isoindolin-1,3-dione] returned a DC50 (class symbols) of 11 to 100 nM.
`CC(C)(c1ccc(OCc2ccnc(N3CC4(CNC4)C3)n2)cc1)c1ccc(O[C@H]2C[C@@H](Nc3ccc4c(c3)C(=O)N(C3CCC(=O)NC3=O)C4=O)C2)cc1` (stereo partly drawn) [Example 86] had a half-maximal degradation concentration (DC50) (class symbols) of 11 to 100 nM.
The same measure, in the same setting: in the case of `CC(C)(c1ccc(OCc2ccnc(N3CCC4(CC3)COC4)n2)cc1)c1ccc(O[C@H]2C[C@@H](Nc3ccc4c(c3)C(=O)N(C3CCC(=O)NC3=O)C4=O)C2)cc1` (stereo partly drawn) [Example 87, 5-(((1s,3s)-3-(4-(2-(4-((2-(2-oxa-7-azaspiro[3.5]nonan-7-yl)pyrimidin-4-yl)methoxy)phenyl)propan-2-yl)phenoxy)cyclobutyl)amino)-2-(2,6-dioxopiperidin-3-yl)isoindolin-1,3-dione] it was 11 to 100 nM.
Still for that read-out and setting: in the case of `CC(C)(c1ccc(OCc2ccnc(N3CC4(COC4)C3)n2)cc1)c1ccc(O[C@H]2C[C@@H](Nc3ccc4c(c3)C(=O)N(C3CCC(=O)NC3=O)C4)C2)cc1` (stereo partly drawn) [Example 92, 3-(6-(((1s,3s)-3-(4-(2-(4-((2-(2-oxa-6-azaspiro[3.3]heptane-6-yl)pyrimidin-4-yl)methoxy)phenyl)propan-2-yl)phenoxy)cyclobutyl)amino)-1-oxoisoindolin-2-yl)piperidin-2,6-dione] it was 101 to 1000 nM; in that of `CC(C)(c1ccc(Oc2ccc(-n3nccn3)nc2)cc1)c1ccc(OC2CC(Nc3ccc4c(c3)CN(C3CCC(=O)NC3=O)C4=O)C2)cc1` (stereo not drawn) [Example 93, 3-(5-((1r,3r)-3-(4-(2-(4-((6-(2H-1,2,3-triazol-2-yl)pyridin-3-yl)oxy)phenyl)propan-2-yl)phenoxy)cyclobutyl)amino)-1-oxoisoindolin-2-yl)piperidin-2,6-dione], 101 to 1000 nM; in that of `CN1C(=O)CCC(N2C(=O)c3ccc(N[C@H]4C[C@H](Oc5ccc(C(C)(C)c6ccc(OCc7ccnc(N8CC9(COC9)C8)n7)cc6)cc5)C4)cc3C2=O)C1=O` (stereo partly drawn) [Example 100, 5-((1r,3r)-3-(4-(2-(4-(4-((2-(2-oxa-6-azaspiro[3.3]heptane-6-yl)pyrimidin-4-yl)methoxy)phenyl)propan-2-yl)phenoxy)cyclobutyl)amino)-2-(1-methyl-2,6-dioxopiperidin-3-yl)isoindolin-1,3-dione], 101 to 1000 nM.
With `Cc1nc(-c2ncc(Oc3ccc(C(C)(C)c4ccc(O[C@H]5C[C@H](Nc6cc7c(cc6F)C(=O)N(C6CCC(=O)NC6=O)C7=O)C5)cc4)cc3)cn2)no1` (stereo partly drawn) [Example 102], the DC50 (class symbols) is 11 to 100 nM.
For the setting “numeric values”, `CC(=O)c1nccc(COc2ccc(C(C)(C)c3ccc(OC4CCCN(c5ccc6c(c5)C(=O)N(C5CCC(=O)NC5=O)C6=O)C4)cc3)cc2)n1` (stereo not drawn) [Example 107] had a DC50 greater than 10000 nM.
Same read-out and setting: the value for `CC(=O)c1nccc(COc2ccc(C(C)(C)c3ccc(OCC4CCN(c5ccc6c(c5)C(=O)N(C5CCC(=O)NC5=O)C6=O)CC4)cc3)cc2)n1` (stereo not drawn) [Example 108, 5-(4-((4-(2-(4-((2-acetylpyrimidin-4-yl)methoxy)phenyl)propan-2-yl)phenoxy)methyl)piperidin-1-yl)-2-(2,6-dioxopiperidin-3-yl)isoindol-1,3-dione] was greater than 10000 nM.
On to `CC(=O)c1nccc(COc2ccc(C(C)(C)c3ccc(O[C@H]4C[C@H](N(C)c5ccc6c(c5)C(=O)N(C5CCC(=O)NC5=O)C6=O)C4)cc3)cc2)n1` (stereo partly drawn) [Example 111, 5-(((trans)-3-(4-(2-(4-((2-acetylpyrimidin-4-yl)methoxy)phenyl)propan-2-yl)phenoxy)cyclobutyl)(methyl)amino)-2-(2,6-dioxopiperidin-3-yl)isoindolin-1,3-dione], for which the DC50 (class symbols) was in the range of 101 to 1000 nM.
`CC(C)(c1ccc(OCc2ccnc(N3CC4(COC4)C3)n2)cc1)c1ccc(OCC2CC(Nc3ccc4c(c3)C(=O)N(C3CCC(=O)NC3=O)C4=O)C2)cc1` (stereo not drawn) [Example 112, 5-((3-((4-(2-(4-((2-(2-oxa-6-azaspiro[3.3]heptan-6-yl)pyrimidin-4-yl)methoxy)phenyl)propan-2-yl)phenoxy)methyl)cyclobutyl)amino)-2-(2,6-dioxopiperidin-3-yl)isoindolin-1,3-dione] came in with a 50% degradation concentration (DC50) (class symbols) of 11 to 100 nM.
In turn, `CC(C)(c1ccc(OCCCOc2ccc3c(c2)C(=O)N(C2CCC(=O)NC2=O)C3=O)cc1)c1ccc(OCc2ccnc(N3CC4(COC4)C3)n2)cc1` (stereo not drawn) [Example 113, 5-(3-(4-(2-(4-((2-(2-oxa-6-azaspiro[3.3]heptan-6-yl)pyrimidin-4-yl)methoxy)phenyl)propan-2-yl)phenoxy)propoxy)-2-(2,6-dioxopiperidin-3-yl)isoindolin-1,3-dione] showed a half-maximal degradation concentration (DC50) (class symbols) of 1000 to 5000 nM.

The values are drawn from patent publication US20250051347A1, “BIFUNCTIONAL CHIMERIC HETEROCYCLIC COMPOUND AND USE THEREOF AS ANDROGEN RECEPTOR DEGRADER” (Hinova Pharmaceuticals, Inc., priority 2021, published 2025).
